Where only a bound is given, the exact number is not on record here.

From patent US10336762B2 (priority 2017, dated 2019) come the findings set out here.

The target in test [1] is IRAK4 enzyme (Homo sapiens (Human), UniProt Q9NWZ3). The test is described as follows: biochemical. The class given is biochemical. The settings on record: IRAK4 enzyme, TR-FRET (HTRF), 500 μM ATP. (In general: TR-FRET usually uses a lanthanide donor and a delayed reading to cut background.)
The subject of test [2] is TNFα. The test is described as follows: cells. The settings on record: Homo sapiens, Monocyte, LPS-stimulated human monocytes, TNFα content; read-out: EC50 TNF. The class given is cell-based, human.

Sequence of IRAK4 enzyme (Q9NWZ3 whole entry): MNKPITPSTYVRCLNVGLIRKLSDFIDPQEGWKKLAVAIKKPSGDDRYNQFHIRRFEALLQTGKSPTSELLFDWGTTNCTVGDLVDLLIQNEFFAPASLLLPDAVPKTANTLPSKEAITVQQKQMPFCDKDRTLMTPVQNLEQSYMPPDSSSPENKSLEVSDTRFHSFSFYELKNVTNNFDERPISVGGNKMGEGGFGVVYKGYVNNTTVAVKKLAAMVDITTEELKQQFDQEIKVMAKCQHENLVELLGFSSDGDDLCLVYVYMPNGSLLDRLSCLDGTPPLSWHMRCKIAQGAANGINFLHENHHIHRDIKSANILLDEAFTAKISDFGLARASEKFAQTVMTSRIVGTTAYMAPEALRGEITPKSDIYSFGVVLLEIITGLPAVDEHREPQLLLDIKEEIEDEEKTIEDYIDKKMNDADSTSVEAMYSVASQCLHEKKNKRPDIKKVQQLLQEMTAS

For `CC(C)(O)[C@H](F)CNC(=O)c1cnc(-c2ccc3cc(C#N)cnn23)cc1NCCC(C)(N)C(F)(F)F` (stereo partly drawn) [Example 562, 4-((3-amino-4,4,4-trifluoro-3-methylbutyl)amino)-6-(3-cyanopyrrolo[1,2-b]pyridazin-7-yl)-N-((R)-2-fluoro-3-hydroxy-3-methylbutyl)nicotinamide], in test [1], the IC50 (as a rule, the concentration needed to halve the response being measured) was found to be 1 nM. In test [2], the EC50 (in general, the concentration that produces a half-maximal response) was determined as 75 nM.

`Cc1cn2ccc(Nc3cc(-c4ccc5cc(C#N)cnn45)ncc3C(=O)NC[C@@H](F)C(C)(C)O)cc2n1` [Example 563, (R)-6-(3-cyanopyrrolo[1,2-b]pyridazin-7-yl)-N-(2-fluoro-3-hydroxy-3-methylbutyl)-4-((2-methyl-imidazo[1,2-a]pyridin-7-yl)amino)nicotinamide] showed a concentration for half-maximal inhibition (IC50) in test [1] of 2 nM. For the same molecule, the EC50 in test [2] turned out to be 114 nM.

As for `COC(=O)c1ccc(Nc2cc(-c3ccc4cc(C#N)cnn34)ncc2C(=O)NC[C@@H](F)C(C)(C)O)cc1OC` [Example 564, (R)-methyl 4-((2-(3-cyano-pyrrolo[1,2-b]pyridazin-7-yl)-5-((2-fluoro-3-hydroxy-3-methylbutyl)carbamoyl)pyridin-4-yl)amino)-2-methoxybenzoate], in test [1], the IC50 is 23 nM. The EC50 in test [2] was 315 nM.

In test [1], `CC1(C)C(=O)Nc2cc(Nc3cc(-c4ccc5cc(C#N)cnn45)ncc3C(=O)NC[C@@H](F)C(C)(C)O)ccc21` [Example 565, (R)-6-(3-cyanopyrrolo[1,2-b]pyridazin-7-yl)-4-((3,3-dimethyl-2-oxoindolin-6-yl)amino)-N-(2-fluoro-3-hydroxy-3-methylbutyl) nicotinamide] registered an IC50 below 1 nM. Also, the EC50 in test [2] was determined as 23 nM.

Regarding `CC(C)(O)[C@H](F)CNC(=O)c1cnc(-c2ccc3cc(C#N)cnn23)cc1Nc1cnc2cc[nH]c2c1` [Example 566, (R)-4-((1H-pyrrolo[3,2-b]pyridin-6-yl)amino)-6-(3-cyanopyrrolo[1,2-b]pyridazin-7-yl)-N-(2-fluoro-3-hydroxy-3-methyl-butyl)nicotinamide], the IC50 in test [1] was below 1 nM. Further, the EC50 in test [2] was 27 nM.

Take `CC(C)(O)[C@H](F)CNC(=O)c1cnc(-c2ccc3cc(C#N)cnn23)cc1Nc1ccc(OC2COC2)cc1` [Example 567, (R)-6-(3-cyanopyrrolo[1,2-b]pyridazin-7-yl)-N-(2-fluoro-3-hydroxy-3-methylbutyl)-4-((4-(oxetan-3-yloxy)phenyl)amino)nicotinamide]: the IC50 in test [1] is below 1 nM. In addition, the EC50 in test [2] turned out to be 50 nM.

As for `CC(C)(O)[C@H](F)CNC(=O)c1cnc(-c2ccc3cc(C#N)cnn23)cc1Nc1ccc2oc(=O)[nH]c2c1` [Example 568, (R)-6-(3-cyanopyrrolo[1,2-b]pyridazin-7-yl)-N-(2-fluoro-3-hydroxy-3-methylbutyl)-4-((2-oxo-2,3-dihydrobenzo[d]oxazol-5-yl)amino)nicotinamide], the IC50 in test [1] is below 1 nM. Also, the EC50 in test [2] was determined as 214 nM.

`CC(C)(O)[C@H](F)CNC(=O)c1cnc(-c2ccc3cc(C#N)cnn23)cc1Nc1ccn2ccnc2c1` [Example 570, (R)-6-(3-cyanopyrrolo[1,2-b]pyridazin-7-yl)-N-(2-fluoro-3-hydroxy-3-methyl-butyl)-4-(imidazo[1,2-a]pyridin-7-ylamino) nicotinamide]: the IC50 in test [1] was below 1 nM. Moreover, the EC50 in test [2] turned out to be 80 nM.

In the case of `CC(C)(O)[C@H](F)CNC(=O)c1cnc(-c2ccc3cc(C#N)cnn23)cc1Nc1ccc2c(C#N)c[nH]c2c1` [Example 571, (R)-4-((3-cyano-1H-indol-6-yl)amino)-6-(3-cyano-pyrrolo[1,2-b]pyridazin-7-yl)-N-(2-fluoro-3-hydroxy-3-methylbutyl)nicotinamide], the IC50 in test [1] is below 1 nM. In test [2], the EC50 was 12 nM.

Turning to `CC(C)(O)[C@H](F)CNC(=O)c1cnc(-c2ccc3cc(C#N)cnn23)cc1Nc1ccc2ncsc2c1` [Example 572, (R)-4-(benzo[d]thiazol-6-ylamino)-6-(3-cyano-pyrrolo[1,2-b]pyridazin-7-yl)-N-(2-fluoro-3-hydroxy-3-methylbutyl)nicotinamide], the IC50 in test [1] is below 1 nM. Besides, the EC50 in test [2] came to 66 nM.

Take `CC(C)(O)[C@H](F)CNC(=O)c1cnc(-c2ccc3cc(C#N)cnn23)cc1Nc1ccc2c(c1)NC(=O)C2` [Example 573, (R)-6-(3-cyanopyrrolo[1,2-b]pyridazin-7-yl)-N-(2-fluoro-3-hydroxy-3-methyl-butyl)-4-((2-oxoindolin-6-yl)amino)nicotinamide]: the IC50 in test [1] is below 1 nM. In test [2], the EC50 is 24 nM.

Turning to `CC(C)(O)[C@H](F)CNC(=O)c1cnc(-c2ccc3cc(C#N)cnn23)cc1Nc1ccc2cn[nH]c2c1` [Example 574, (R)-4-((1H-indazol-6-yl)amino)-6-(3-cyano-pyrrolo[1,2-b]pyridazin-7-yl)-N-(2-fluoro-3-hydroxy-3-methylbutyl) nicotinamide], the IC50 in test [1] was below 1 nM. The EC50 in test [2] was found to be 57 nM.

`CN(C)C(=O)c1ccc(Nc2cc(-c3ccc4cc(C#N)cnn34)ncc2C(=O)NC[C@@H](F)C(C)(C)O)cn1` [Example 575, (R)-5-((2-(3-cyano-pyrrolo[1,2-b]pyridazin-7-yl)-5-((2-fluoro-3-hydroxy-3-methylbutyl)carbamoyl)pyridin-4-yl)amino)-N,N-dimethyl-picolinamide] registered an IC50 in test [1] of 2 nM. In addition, the EC50 in test [2] worked out at 144 nM.

With `CC(C)(O)[C@H](F)CNC(=O)c1cnc(-c2ccc3cc(C#N)cnn23)cc1Nc1ccc2[nH]ccc2c1` [Example 576, (R)-4-((1H-indol-5-yl)amino)-6-(3-cyano-pyrrolo[1,2-b]pyridazin-7-yl)-N-(2-fluoro-3-hydroxy-3-methylbutyl) nicotinamide], the IC50 in test [1] is below 1 nM. Further, the EC50 in test [2] turned out to be 21 nM.

Molecule `CC(C)(O)[C@H](F)CNC(=O)c1cnc(-c2ccc3cc(C#N)cnn23)cc1Nc1ccc2[nH]ncc2c1` [Example 577, (R)-4-((1H-indazol-5-yl)amino)-6-(3-cyano-pyrrolo[1,2-b]pyridazin-7-yl)-N-(2-fluoro-3-hydroxy-3-methylbutyl) nicotinamide] came in with an IC50 in test [1] below 1 nM. The EC50 in test [2] was 30 nM.

`CC(C)(O)[C@H](F)CNC(=O)c1cnc(-c2ccc3cc(C#N)cnn23)cc1Nc1ccc2cc[nH]c2c1` [Example 578, (R)-4-((1H-indol-6-yl)amino)-6-(3-cyano-pyrrolo[1,2-b]pyridazin-7-yl)-N-(2-fluoro-3-hydroxy-3-methylbutyl) nicotinamide] had an IC50 in test [1] of 2 nM. Besides, the EC50 in test [2] amounted to 14 nM.

In turn, `CNC(=O)c1ccc(Nc2cc(-c3ccc4cc(C#N)cnn34)ncc2C(=O)NC[C@@H](F)C(C)(C)O)cn1` [Example 579, (R)-5-((2-(3-cyano-pyrrolo[1,2-b]pyridazin-7-yl)-5-((2-fluoro-3-hydroxy-3-methylbutyl)carbamoyl)pyridin-4-yl)amino)-N-methylpicolinamide] gave an IC50 in test [1] below 1 nM. Further, the EC50 in test [2] is 75 nM.

As for `CC(C)(O)[C@H](F)CNC(=O)c1cnc(-c2ccc3cc(C#N)cnn23)cc1Nc1ccc2nc[nH]c2c1` [Example 580, (R)-4-((1H-benzo[d]imidazol-6-yl)amino)-6-(3-cyanopyrrolo[1,2-b]pyridazin-7-yl)-N-(2-fluoro-3-hydroxy-3-methyl-butyl)nicotinamide], in test [1], the IC50 was below 1 nM. Moreover, the EC50 in test [2] came out at 69 nM.

Regarding `Cc1cc(Nc2cc(-c3ccc4cc(C#N)cnn34)ncc2C(=O)NC[C@@H](F)C(C)(C)O)ccc1C(N)=O` [Example 581, (R)-4-((4-carbamoyl-3-methylphenyl)amino)-6-(3-cyanopyrrolo[1,2-b]pyridazin-7-yl)-N-(2-fluoro-3-hydroxy-3-methylbutyl)nicotinamide], in test [1], the IC50 was below 1 nM. Also, the EC50 in test [2] is 114 nM.

The molecule `Cc1cc(Nc2cc(-c3ccc4cc(C#N)cnn34)ncc2C(=O)NC[C@@H](F)C(C)(C)O)ncc1C(N)=O` [Example 582, (R)-4-((5-carbamoyl-4-methylpyridin-2-yl)amino)-6-(3-cyanopyrrolo[1,2-b]pyridazin-7-yl)-N-(2-fluoro-3-hydroxy-3-methyl-butyl)nicotinamide] registered an IC50 in test [1] of 3 nM. Further, the EC50 in test [2] worked out at 389 nM.

For the molecule `Cc1cc(Nc2cc(-c3ccc4cc(C#N)cnn34)ncc2C(=O)NC[C@@H](F)C(C)(C)O)ccc1C#N` [Example 583, (R)-4-((4-cyano-3-methylphenyl)amino)-6-(3-cyanopyrrolo[1,2-b]pyridazin-7-yl)-N-(2-fluoro-3-hydroxy-3-methylbutyl)nicotinamide], the IC50 in test [1] amounted to 2 nM. In test [2], the EC50 turned out to be 140 nM.

Molecule `CC(C)(O)[C@H](F)CNC(=O)c1cnc(-c2ccc3cc(C#N)cnn23)cc1Nc1ncc(F)cn1` [Example 584, (R)-6-(3-cyanopyrrolo[1,2-b]pyridazin-7-yl)-N-(2-fluoro-3-hydroxy-3-methylbutyl)-4-((5-fluoro-pyrimidin-2-yl)amino)nicotinamide] yielded an IC50 in test [1] of 4 nM. In addition, the EC50 in test [2] was 274 nM.

Molecule `Cc1cc(Nc2cc(-c3ccc4cc(C#N)cnn34)ncc2C(=O)NC[C@@H](F)C(C)(C)O)ncc1C#N` [Example 585, (R)-4-((5-cyano-4-methyl-pyridin-2-yl)amino)-6-(3-cyanopyrrolo[1,2-b]pyridazin-7-yl)-N-(2-fluoro-3-hydroxy-3-methyl-butyl)nicotinamide] returned an IC50 in test [1] of 2 nM. For the same molecule, the EC50 in test [2] worked out at 104 nM.

As to `CC(C)(O)[C@H](F)CNC(=O)c1cnc(-c2ccc3cc(C#N)cnn23)cc1Nc1ccc(Cl)cn1` [Example 586, (R)-4-((5-chloropyridin-2-yl)amino)-6-(3-cyano-pyrrolo[1,2-b]pyridazin-7-yl)-N-(2-fluoro-3-hydroxy-3-methylbutyl) nicotinamide], the concentration for half-maximal inhibition (IC50) in test [1] was 1 nM. The EC50 in test [2] was determined as 118 nM.

As for `CC(C)(O)[C@H](F)CNC(=O)c1cnc(-c2ccc3cc(C#N)cnn23)cc1Nc1ncccn1` [Example 587, (R)-6-(3-cyanopyrrolo[1,2-b]pyridazin-7-yl)-N-(2-fluoro-3-hydroxy-3-methyl-butyl)-4-(pyrimidin-2-ylamino)nicotinamide], the IC50 in test [1] was 3 nM. Further, the EC50 in test [2] was determined as 150 nM.
